Measurements published in patent publication US10351575B2, “Bicyclic urea, thiourea, guanidine and cyanoguanidine compounds useful for the treatment of pain” (Array BioPharma Inc., priority 2012, dated 2019).

Legend:
Experiment in all cases: KinaseProfiler off-target kinase profiling
Format in all cases: biochemical
Conditions in all cases: 10 μM, ATP near Km
[1] = target: CHK2 (Homo sapiens (Human), UniProt O96017)
How it was run: (§1)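 Tested once at 10 μM, in two replicates, under near-Km ATP for the given kinase; result expressed as mean POC.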

[2] = target: Ron (Homo sapiens (Human), UniProt Q04912)
How it was run: as §1

[3] = target: KDR (Homo sapiens (Human), UniProt P35968)
How it was run: as §1

[4] = target: EphA1 (Homo sapiens (Human), UniProt P21709)
How it was run: as §1

[5] = target: VRK2 (Homo sapiens (Human), UniProt Q86Y07)
How it was run: as §1

[6] = target: IRR (Homo sapiens (Human), UniProt P14616)
How it was run: as §1

[7] = target: GRK6 (Homo sapiens (Human), UniProt P43250)
How it was run: as §1

[8] = target: PDK1 (Homo sapiens (Human), UniProt O15530)
How it was run: as §1

[9] = target: PhKgamma2 (Homo sapiens (Human), UniProt P15735)
How it was run: as §1

[10] = target: MLK1 (Homo sapiens (Human), UniProt P80192)
How it was run: as §1

[11] = target: CK1delta (Homo sapiens (Human), UniProt P48730)
How it was run: as §1

[12] = target: CDK6/cyclinD3 (Homo sapiens (Human), UniProt Q00534)
How it was run: as §1

[13] = target: TAO1 (Homo sapiens (Human), UniProt Q7L7X3)
How it was run: as §1

[14] = target: EphA5 (Homo sapiens (Human), UniProt P54756)
How it was run: as §1

[15] = target: AKT3 (Homo sapiens (Human), UniProt Q9Y243)
How it was run: as §1

[16] = target: DYRK2 (Homo sapiens (Human), UniProt Q92630)
How it was run: as §1

[17] = target: MSK2 (Homo sapiens (Human), UniProt O75676)
How it was run: as §1

[18] = target: Pim-3 (Homo sapiens (Human), UniProt Q86V86)
How it was run: as §1

[19] = target: CK2alpha2 (Homo sapiens (Human), UniProt P19784)
How it was run: as §1

[20] = target: SIK (Homo sapiens (Human), UniProt P57059)
How it was run: as §1

[21] = target: CSK (Homo sapiens (Human), UniProt P41240)
How it was run: as §1

[22] = target: TrkB (Homo sapiens (Human), UniProt Q16620)
How it was run: as §1

[23] = target: MINK (Homo sapiens (Human), UniProt Q8N4C8)
How it was run: as §1

[24] = target: MARK1 (Homo sapiens (Human), UniProt Q9P0L2)
How it was run: as §1

[25] = target: CDK1/cyclinB (Homo sapiens (Human), UniProt P06493)
How it was run: as §1

[26] = target: PKCalpha (Homo sapiens (Human), UniProt P17252)
How it was run: as §1

[27] = target: MAPKAP-K2 (Homo sapiens (Human), UniProt P49137)
How it was run: as §1

[28] = target: LOK (Homo sapiens (Human), UniProt O94804)
How it was run: as §1

[29] = target: JAK3 (Homo sapiens (Human), UniProt P52333)
How it was run: as §1

[30] = target: JNK3 (Homo sapiens (Human), UniProt P53779)
How it was run: as §1

[31] = target: IKKbeta (Homo sapiens (Human), UniProt O14920)
How it was run: as §1

[32] = target: CDK3/cyclinE (Homo sapiens (Human), UniProt Q00526)
How it was run: as §1

[33] = target: DAPK2 (Homo sapiens (Human), UniProt Q9UIK4)
How it was run: as §1

[34] = target: Fes (Homo sapiens (Human), UniProt P07332)
How it was run: as §1

[35] = target: MEK1 (Homo sapiens (Human), UniProt Q02750)
How it was run: as §1

[36] = target: HIPK1 (Homo sapiens (Human), UniProt Q86Z02)
How it was run: as §1

[37] = target: Abl2 (Homo sapiens (Human), UniProt P42684)
How it was run: as §1

[38] = target: Flt3 (Homo sapiens (Human), UniProt P36888)
How it was run: as §1

[39] = target: Rse (Homo sapiens (Human), UniProt Q06418)
How it was run: as §1

DYRK2, sequence (Q92630 whole entry): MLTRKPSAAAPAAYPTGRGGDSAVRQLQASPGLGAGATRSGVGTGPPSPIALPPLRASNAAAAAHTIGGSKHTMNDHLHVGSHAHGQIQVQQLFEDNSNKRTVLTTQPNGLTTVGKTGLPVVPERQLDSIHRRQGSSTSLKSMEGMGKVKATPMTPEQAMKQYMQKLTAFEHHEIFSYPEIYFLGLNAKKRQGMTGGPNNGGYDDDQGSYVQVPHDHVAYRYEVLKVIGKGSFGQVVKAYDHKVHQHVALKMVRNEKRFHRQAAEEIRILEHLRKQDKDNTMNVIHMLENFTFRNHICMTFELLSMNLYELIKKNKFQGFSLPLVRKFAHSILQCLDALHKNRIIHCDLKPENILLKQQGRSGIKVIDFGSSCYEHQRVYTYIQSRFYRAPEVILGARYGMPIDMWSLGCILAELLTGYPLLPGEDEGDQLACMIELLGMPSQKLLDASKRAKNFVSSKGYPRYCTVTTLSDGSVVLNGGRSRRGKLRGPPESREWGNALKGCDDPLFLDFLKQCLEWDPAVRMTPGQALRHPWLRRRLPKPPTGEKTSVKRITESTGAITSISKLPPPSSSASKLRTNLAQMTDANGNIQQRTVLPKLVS
IKKbeta, sequence (O14920 whole entry): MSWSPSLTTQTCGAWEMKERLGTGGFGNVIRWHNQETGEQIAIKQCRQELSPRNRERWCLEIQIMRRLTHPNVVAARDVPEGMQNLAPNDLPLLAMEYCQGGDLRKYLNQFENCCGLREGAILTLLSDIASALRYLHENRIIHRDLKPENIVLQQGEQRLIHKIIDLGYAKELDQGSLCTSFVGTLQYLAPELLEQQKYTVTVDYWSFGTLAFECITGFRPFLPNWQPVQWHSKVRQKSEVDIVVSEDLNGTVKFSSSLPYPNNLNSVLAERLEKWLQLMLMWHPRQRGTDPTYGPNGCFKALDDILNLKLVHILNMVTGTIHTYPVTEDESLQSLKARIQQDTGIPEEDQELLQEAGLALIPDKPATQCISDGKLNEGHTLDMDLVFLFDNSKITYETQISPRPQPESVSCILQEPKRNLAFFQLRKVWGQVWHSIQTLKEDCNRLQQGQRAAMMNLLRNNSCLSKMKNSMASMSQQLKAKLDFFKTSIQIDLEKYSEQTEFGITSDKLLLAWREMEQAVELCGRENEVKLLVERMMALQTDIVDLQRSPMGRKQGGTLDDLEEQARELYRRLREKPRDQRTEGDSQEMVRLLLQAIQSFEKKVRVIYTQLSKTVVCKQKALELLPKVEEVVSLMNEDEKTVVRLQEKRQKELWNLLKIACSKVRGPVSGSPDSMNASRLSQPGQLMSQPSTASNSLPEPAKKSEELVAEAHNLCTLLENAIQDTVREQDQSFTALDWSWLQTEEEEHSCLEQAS
Rse, sequence (Q06418 41-890): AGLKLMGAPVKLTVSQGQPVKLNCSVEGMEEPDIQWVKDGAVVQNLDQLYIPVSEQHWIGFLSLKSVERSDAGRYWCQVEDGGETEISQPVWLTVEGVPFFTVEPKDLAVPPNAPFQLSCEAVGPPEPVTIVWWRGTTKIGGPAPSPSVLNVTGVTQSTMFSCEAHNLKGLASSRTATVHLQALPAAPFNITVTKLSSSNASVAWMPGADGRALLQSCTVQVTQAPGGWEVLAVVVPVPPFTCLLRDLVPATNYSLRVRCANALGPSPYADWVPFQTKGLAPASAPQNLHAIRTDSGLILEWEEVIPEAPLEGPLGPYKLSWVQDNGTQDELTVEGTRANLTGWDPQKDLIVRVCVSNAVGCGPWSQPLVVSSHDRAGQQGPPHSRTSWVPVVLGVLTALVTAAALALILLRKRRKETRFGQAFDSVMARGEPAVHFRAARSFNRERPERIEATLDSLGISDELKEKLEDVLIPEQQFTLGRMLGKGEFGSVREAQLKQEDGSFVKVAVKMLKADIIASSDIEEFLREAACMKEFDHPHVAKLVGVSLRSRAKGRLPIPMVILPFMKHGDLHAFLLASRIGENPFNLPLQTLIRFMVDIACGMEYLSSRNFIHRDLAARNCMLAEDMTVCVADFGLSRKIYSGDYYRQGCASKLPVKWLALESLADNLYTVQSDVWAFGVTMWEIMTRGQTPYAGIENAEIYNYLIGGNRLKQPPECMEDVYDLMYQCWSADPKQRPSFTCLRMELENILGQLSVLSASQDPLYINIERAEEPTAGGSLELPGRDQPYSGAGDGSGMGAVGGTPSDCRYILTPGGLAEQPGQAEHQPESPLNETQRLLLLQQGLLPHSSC
SIK, sequence (P57059 whole entry): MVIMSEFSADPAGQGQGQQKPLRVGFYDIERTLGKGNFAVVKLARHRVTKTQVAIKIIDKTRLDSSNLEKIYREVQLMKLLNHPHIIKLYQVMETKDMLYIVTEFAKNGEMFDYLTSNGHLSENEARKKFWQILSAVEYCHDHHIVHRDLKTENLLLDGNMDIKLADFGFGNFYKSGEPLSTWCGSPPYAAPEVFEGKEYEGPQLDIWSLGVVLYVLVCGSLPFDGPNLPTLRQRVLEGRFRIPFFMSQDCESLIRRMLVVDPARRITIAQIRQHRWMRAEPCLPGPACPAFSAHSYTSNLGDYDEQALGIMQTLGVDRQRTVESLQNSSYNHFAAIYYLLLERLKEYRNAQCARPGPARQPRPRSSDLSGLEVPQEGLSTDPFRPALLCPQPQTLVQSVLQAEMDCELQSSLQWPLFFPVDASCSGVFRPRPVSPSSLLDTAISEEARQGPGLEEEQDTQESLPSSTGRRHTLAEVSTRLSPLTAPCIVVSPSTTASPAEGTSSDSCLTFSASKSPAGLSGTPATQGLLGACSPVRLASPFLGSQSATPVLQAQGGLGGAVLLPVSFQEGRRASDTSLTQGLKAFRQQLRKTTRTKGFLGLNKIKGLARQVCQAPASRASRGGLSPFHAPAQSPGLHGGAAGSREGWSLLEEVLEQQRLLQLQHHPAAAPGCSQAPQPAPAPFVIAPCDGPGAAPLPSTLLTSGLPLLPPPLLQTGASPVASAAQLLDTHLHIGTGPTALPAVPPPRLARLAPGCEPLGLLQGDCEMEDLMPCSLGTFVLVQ
MINK, sequence (Q8N4C8 whole entry): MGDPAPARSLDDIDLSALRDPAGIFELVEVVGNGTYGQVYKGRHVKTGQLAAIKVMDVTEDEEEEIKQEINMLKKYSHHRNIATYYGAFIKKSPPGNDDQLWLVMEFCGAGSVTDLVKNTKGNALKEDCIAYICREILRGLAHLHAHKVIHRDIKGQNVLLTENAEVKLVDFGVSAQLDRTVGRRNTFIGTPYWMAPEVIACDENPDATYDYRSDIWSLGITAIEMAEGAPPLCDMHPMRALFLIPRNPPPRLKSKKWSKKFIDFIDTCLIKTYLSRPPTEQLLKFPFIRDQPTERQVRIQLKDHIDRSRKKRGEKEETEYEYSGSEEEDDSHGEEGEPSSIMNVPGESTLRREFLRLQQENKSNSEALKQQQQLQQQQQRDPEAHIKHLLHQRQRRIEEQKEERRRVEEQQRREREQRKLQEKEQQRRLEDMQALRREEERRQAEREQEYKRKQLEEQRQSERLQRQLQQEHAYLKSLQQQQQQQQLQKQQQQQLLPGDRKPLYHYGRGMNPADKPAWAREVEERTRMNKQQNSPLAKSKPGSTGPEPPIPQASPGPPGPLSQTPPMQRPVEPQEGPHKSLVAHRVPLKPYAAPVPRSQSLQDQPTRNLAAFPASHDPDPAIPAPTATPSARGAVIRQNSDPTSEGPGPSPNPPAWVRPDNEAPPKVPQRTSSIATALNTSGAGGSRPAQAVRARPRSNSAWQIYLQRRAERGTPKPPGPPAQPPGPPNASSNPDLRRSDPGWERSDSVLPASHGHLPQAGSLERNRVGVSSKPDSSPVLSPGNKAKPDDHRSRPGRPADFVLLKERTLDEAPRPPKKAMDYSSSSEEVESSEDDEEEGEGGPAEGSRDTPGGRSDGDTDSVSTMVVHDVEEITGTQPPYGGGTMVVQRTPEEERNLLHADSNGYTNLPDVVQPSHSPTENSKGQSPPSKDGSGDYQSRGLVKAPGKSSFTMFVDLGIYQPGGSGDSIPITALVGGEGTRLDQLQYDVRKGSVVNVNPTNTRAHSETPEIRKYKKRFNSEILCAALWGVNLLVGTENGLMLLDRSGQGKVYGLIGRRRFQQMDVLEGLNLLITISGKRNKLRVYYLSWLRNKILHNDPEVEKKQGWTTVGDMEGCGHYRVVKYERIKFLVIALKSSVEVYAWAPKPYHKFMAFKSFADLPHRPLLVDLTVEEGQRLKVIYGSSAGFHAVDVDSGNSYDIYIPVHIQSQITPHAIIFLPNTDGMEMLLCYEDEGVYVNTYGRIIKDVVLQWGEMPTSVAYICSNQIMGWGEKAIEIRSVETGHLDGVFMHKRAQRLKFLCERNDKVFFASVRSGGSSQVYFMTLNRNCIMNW

Compound | Avg. POC [1] [POC] | Avg. POC [2] [POC] | Avg. POC [3] [POC] | Avg. POC [4] [POC] | Avg. POC [5] [POC] | Avg. POC [6] [POC] | Avg. POC [7] [POC] | Avg. POC [8] [POC] | Avg. POC [9] [POC] | Avg. POC [10] [POC] | Avg. POC [11] [POC] | Avg. POC [12] [POC] | Avg. POC [13] [POC] | Avg. POC [14] [POC] | Avg. POC [15] [POC] | Avg. POC [16] [POC] | Avg. POC [17] [POC] | Avg. POC [18] [POC] | Avg. POC [19] [POC] | Avg. POC [20] [POC] | other results
Cc1c(-c2cnn(C)c2)nn(-c2ccccc2)c1NC(=O)N[C@H]1CCCc2ccccc21 [Example 2, (S)-1-(1′,4-dimethyl-1-phenyl-1H,1′H-3,4′-bipyrazol-5-yl)-3-(1,2,3,4-tetrahydronaphthalen-1-yl)urea] | 119 | 106.5 | 123.5 | 85 | 109 | 2.5 | 103.5 | 120.5 | 113 | 75 | 117.5 | 100 | 110.5 | 119 | 116.5 | 98 | 112 | 98 | 125 | 121.5 | Avg. POC [21]: 124 POC; Avg. POC [22]: −2 POC; Avg. POC [23]: 110.5 POC; Avg. POC [24]: 103 POC; Avg. POC [25]: 122.5 POC; Avg. POC [26]: 96 POC; Avg. POC [27]: 137.5 POC; Avg. POC [28]: 109.5 POC; Avg. POC [29]: 142.5 POC; Avg. POC [30]: 117.5 POC; Avg. POC [31]: 116 POC; Avg. POC [32]: 105.5 POC; Avg. POC [33]: 123.5 POC; Avg. POC [34]: 129.5 POC; Avg. POC [35]: 100.5 POC; Avg. POC [36]: 97 POC; Avg. POC [37]: 112.5 POC; Avg. POC [38]: 96.5 POC; Avg. POC [39]: 109 POC
Cc1c(-c2cnn(C)c2)nn(-c2ccccc2)c1NC(=O)NC1CCOc2cc(F)ccc21 (stereo not drawn) [Example 12, 1-(1′,4-dimethyl-1-phenyl-1H,1′H-[3,4′-bipyrazol]-5-yl)-3-(7-fluorochroman-4-yl)urea] | 92 | 116.5 | 119.5 | 100 | 95 | 91 | 103 | 105.5 | 110 | 103.5 | 109.5 | 103 | 104 | 118.5 | 94 | 97.5 | 127 | 100.5 | 107.5 | 133.5 | Avg. POC [21]: 131.5 POC; Avg. POC [22]: 1 POC; Avg. POC [23]: 102 POC; Avg. POC [24]: 104 POC; Avg. POC [25]: 107.5 POC; Avg. POC [26]: 104 POC; Avg. POC [27]: 122.5 POC; Avg. POC [28]: 116 POC; Avg. POC [29]: 112 POC; Avg. POC [30]: 107.5 POC; Avg. POC [31]: 102 POC; Avg. POC [32]: 98.5 POC; Avg. POC [33]: 102.5 POC; Avg. POC [34]: 110 POC; Avg. POC [35]: 106.5 POC; Avg. POC [36]: 102.5 POC; Avg. POC [37]: 118 POC; Avg. POC [38]: 90 POC; Avg. POC [39]: 106 POC
